From patent US20100286136A1, “DIHYDRONAPHTHYRIDINYL AND RELATED COMPOUNDS FOR USE IN TREATING OPHTHALMOLOGICAL DISORDERS” (priority 2009, published 2010)

biological target: T1, CCR2b (Homo sapiens, UniProt P41597); assay: AequoScreen CCR2b calcium flux assay, antagonist mode against reference agonist MCP-1; type: cell-based; conditions: AequoScreen CCR2b (FAST-060A) cells; inhibition of reference agonist MCP-1 at its EC80; read-out: IC50 (μM) Ca^++flux
T1 construct: host or cells: AequoScreen CCR2b cells
T1 sequence (P41597 1-360 isoform P41597-2): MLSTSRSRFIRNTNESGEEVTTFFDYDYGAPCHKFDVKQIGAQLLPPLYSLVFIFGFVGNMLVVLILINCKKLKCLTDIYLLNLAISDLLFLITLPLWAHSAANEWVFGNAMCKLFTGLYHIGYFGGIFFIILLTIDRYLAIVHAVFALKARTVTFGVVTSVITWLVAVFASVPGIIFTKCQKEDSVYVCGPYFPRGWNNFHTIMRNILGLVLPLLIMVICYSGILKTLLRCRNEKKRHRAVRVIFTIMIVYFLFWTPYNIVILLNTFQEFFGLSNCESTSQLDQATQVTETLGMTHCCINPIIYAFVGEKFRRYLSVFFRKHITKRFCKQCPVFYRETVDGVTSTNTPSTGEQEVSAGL
Protocol: The biological activity of the compounds described herein can be evaluated using assays known in the art, such as the AequoScreen™ assay.
AequoScreen™ CCR2b (FAST-060A) cells grown to mid-log phase in culture media without antibiotics are detached with PBS-EDTA, centrifuged and resuspended in assay buffer (DMEM/HAM's F12 with HEPES, without phenol red+0.1% BSA protease free) at a concentration of 1×10^6 cells/mL. Cells are incubated at room temperature for at least 4 hours with coelenterazine h. Dose response curves are performed before testing. The reference agonist is MCP-1.
For agonist testing, 50 μL of cell suspension is mixed with 50 μL of test compound in a 96-well plate. The resulting emission of light is recorded using a Hamamatsu Functional Drug Screening System 6000 (FDSS 6000).
Following an incubation of 15 minutes after the first injection, 100 μL of the resulting cell suspension containing the test compound is mixed with 100 μL of the reference agonist in the 96 well test plate. The resulting emission of light is recorded using the same luminometer as for agonist testing.
Agonist activity of a test compound can be expressed as a percentage of the activity of the reference agonist at its EC100 concentration. Antagonist activity of a test compound can be expressed as a percentage of the inhibition of reference agonist activity at its EC80 concentration.

| IC50 | Compound |
| --- | --- |
| > 1 µM | O=C(N1CCc2ncc(C(F)(F)F)cc2C1)C1(CC2CC2)CCN(Cc2ccc3[nH]ncc3c2)C1 (stereo not drawn) [Example 17, (1-((1H-Indazol-5-yl)methyl)-3-(cyclopropylmethyl)pyrrolidin-3-yl)(3-(trifluoromethyl)-7,8-dihydro-1,6-naphthyridin-6(5H)-yl)methanone] |
| > 1 µM | Cn1c(=O)ccc2cc(CN3CCC(CC4CC4)(C(=O)N4CCc5ncc(C(F)(F)F)cc5C4)C3)ccc21 (stereo not drawn) [Example 22, 6-((3-(Cyclopropylmethyl)-3-(3-(trifluoromethyl)-5,6,7,8-tetrahydro-1,6-naphthyridine-6-carbonyl)pyrrolidin-1-yl)methyl)-1-methylquinolin-2(1H)-one] |
| < 0.2 µM | Cn1c(=O)oc2ccc(CN3CCC(CC4CC4)(C(=O)N4CCc5ncc(C(F)(F)F)cc5C4)C3)cc21 (stereo not drawn) [Example 23, 5-((3-(Cyclopropylmethyl)-3-(3-(trifluoromethyl)-5,6,7,8-tetrahydro-1,6-naphthyridine-6-carbonyl)pyrrolidin-1-yl)methyl)-3-methylbenzo[d]oxazol-2(3H)-one] |
| < 0.2 µM | CC(C)CC1(C(=O)N2CCc3ncc(C(F)(F)F)cc3C2)CCN(Cc2ccc3oc(=O)n(C)c3c2)C1 (stereo not drawn) [Example 24, 5-((3-Isobutyl-3-(3-(trifluoromethyl)-5,6,7,8-tetrahydro-1,6-naphthyridine-6-carbonyl)pyrrolidin-1-yl)methyl)-3-methylbenzo[d]oxazol-2(3H)-one] |
| < 0.2 µM | COCC1(C(=O)N2CCc3ncc(C(F)(F)F)cc3C2)CCN(Cc2ccc3ccc(=O)n(C)c3c2)C1 (stereo not drawn) [Example 25, 7-((3-(Methoxymethyl)-3-(3-(trifluoromethyl)-5,6,7,8-tetrahydro-1,6-naphthyridine-6-carbonyl)pyrrolidin-1-yl)methyl)-1-methylquinolin-2(1H)-one] |
| < 0.2 µM | COCC1(C(=O)N2CCc3ncc(C(F)(F)F)cc3C2)CCN(Cc2ccc3sc(=O)n(C)c3c2)C1 (stereo not drawn) [Example 28, 5-((3-(Methoxymethyl)-3-(3-(trifluoromethyl)-5,6,7,8-tetrahydro-1,6-naphthyridine-6-carbonyl)pyrrolidin-1-yl)methyl)-3-methylbenzo[d]thiazol-2(3H)-one] |
| < 0.2 µM | COCC1(C(=O)N2CCc3ncc(C(F)(F)F)cc3C2)CCN(C(C)c2ccc3c(c2)n(C)c(=O)n3C)C1 (stereo not drawn) [Example 29, 5-(1-(3-(Methoxymethyl)-3-(3-(trifluoromethyl)-5,6,7,8-tetrahydro-1,6-naphthyridine-6-carbonyl)pyrrolidin-1-yl)ethyl)-1,3-dimethyl-1H-benzo[d]imidazol-2(3H)-one] |
| < 0.2 µM | COCC1(C(=O)N2CCc3ncc(C(F)(F)F)cc3C2)CCN(Cc2ccc3c(c2)N(C)C(=O)CO3)C1 (stereo not drawn) [Example 32, 6-((3-(Methoxymethyl)-3-(3-(trifluoromethyl)-5,6,7,8-tetrahydro-1,6-naphthyridine-6-carbonyl)pyrrolidin-1-yl)methyl)-4-methyl-2H-benzo[b][1,4]oxazin-3(4H)-one] |
| < 0.2 µM | COCC1(C(=O)N2CCc3ncc(C(F)(F)F)cc3C2)CCN(C(C)c2ccc3c(c2)N(C)C(=O)CO3)C1 (stereo not drawn) [Example 33, 6-(1-(3-(Methoxymethyl)-3-(3-(trifluoromethyl)-5,6,7,8-tetrahydro-1,6-naphthyridine-6-carbonyl)pyrrolidin-1-yl)ethyl)-4-methyl-2H-benzo[b][1,4]oxazin-3(4H)-one] |
| < 0.2 µM | COCC1(C(=O)N2CCc3ncc(C(F)(F)F)cc3C2)CCN(C(C)c2ccc3oc(=O)n(C)c3c2)C1 (stereo not drawn) [Example 34, 5-(1-(3-(Methoxymethyl)-3-(3-(trifluoromethyl)-5,6,7,8-tetrahydro-1,6-naphthyridine-6-carbonyl)pyrrolidin-1-yl)ethyl)-3-methylbenzo[d]oxazol-2(3H)-one] |
| 0.2 to 1 µM | COCC1(C(=O)N2CCc3ncc(C(F)(F)F)cc3C2)CCN(C2CCC(O)(C3CC3)CC2)C1 (stereo not drawn) [Example 35] |
| 0.2 to 1 µM | COCC1(C(=O)N2CCc3ncc(C(F)(F)F)cc3C2)CCN(Cc2cc3c(ccc(=O)n3C)cc2Cl)C1 (stereo not drawn) [Example 36, 6-Chloro-7-((3-(methoxymethyl)-3-(3-(trifluoromethyl)-5,6,7,8-tetrahydro-1,6-naphthyridine-6-carbonyl)pyrrolidin-1-yl)methyl)-1-methylquinolin-2(1H)-one] |
| < 0.2 µM | COCC1(C(=O)N2CCc3ncc(C(F)(F)F)cc3C2)CCN(Cc2cc3c(cc2Cl)oc(=O)n3C)C1 (stereo not drawn) [Example 37, 6-Chloro-5-((3-(methoxymethyl)-3-(3-(trifluoromethyl)-5,6,7,8-tetrahydro-1,6-naphthyridine-6-carbonyl)pyrrolidin-1-yl)methyl)-3-methylbenzo[d]oxazol-2(3H)-one] |
| > 1 µM | COCC1(C(=O)N2CCc3ncc(C(F)(F)F)cc3C2)CCN(Cc2ccc3c(c2)n(C)c(=O)n3C)C1 (stereo not drawn) [Example 38, 5-((3-(Methoxymethyl)-3-(3-(trifluoromethyl)-5,6,7,8-tetrahydro-1,6-naphthyridine-6-carbonyl)pyrrolidin-1-yl)methyl)-1,3-dimethyl-1H-benzo[d]imidazol-2(3H)-one] |
| < 0.2 µM | COCC1(C(=O)N2CCc3ncc(C(F)(F)F)cc3C2)CCN(Cc2ccc3oc(=O)n(C)c3c2)C1 (stereo not drawn) [Example 39, 5-((3-(Methoxymethyl)-3-(3-(trifluoromethyl)-5,6,7,8-tetrahydro-1,6-naphthyridine-6-carbonyl)pyrrolidin-1-yl)methyl)-3-methylbenzo[d]oxazol-2(3H)-one] |
| < 0.2 µM | CCOCC1(C(=O)N2CCc3ncc(C(F)(F)F)cc3C2)CCN(Cc2ccc3oc(=O)n(C)c3c2)C1 (stereo not drawn) [Example 45, 5-((3-(Ethoxymethyl)-3-(3-(trifluoromethyl)-5,6,7,8-tetrahydro-1,6-naphthyridine-6-carbonyl)pyrrolidin-1-yl)methyl)-3-methylbenzo[d]oxazol-2(3H)-one] |
| < 0.2 µM | COCC1(C(=O)N2CCc3ccc(C(F)(F)F)cc3C2)CCN(Cc2ccc3oc(=O)n(C)c3c2)C1 (stereo not drawn) [Example 46, 5-((3-(methoxymethyl)-3-(7-(trifluoromethyl)-1,2,3,4-tetrahydroisoquinoline-2-carbonyl)pyrrolidin-1-yl)methyl)-3-methylbenzo[d]oxazol-2(3H)-one] |
| < 0.2 µM | CC(C)C1(C(=O)N2CCc3ncc(C(F)(F)F)cc3C2)CCN(Cc2ccc3oc(=O)n(C)c3c2)C1 (stereo not drawn) [Example 47, 5-((3-isopropyl-3-(3-(trifluoromethyl)-5,6,7,8-tetrahydro-1,6-naphthyridine-6-carbonyl)pyrrolidin-1-yl)methyl)-3-methylbenzo[d]oxazol-2(3H)-one] |
| 0.2 to 1 µM | Cn1c(=O)oc2ccc(CN3CCC(CC#N)(C(=O)N4CCc5ncc(C(F)(F)F)cc5C4)C3)cc21 (stereo not drawn) [Example 48, 2-(1-((3-methyl-2-oxo-2,3-dihydrobenzo[d]oxazol-5-yl)methyl)-3-(3-(trifluoromethyl)-5,6,7,8-tetrahydro-1,6-naphthyridine-6-carbonyl)pyrrolidin-3-yl)acetonitrile] |
| > 1 µM | Cn1c(=O)oc2ccc(CN3CCC(CO)(C(=O)N4CCc5ncc(C(F)(F)F)cc5C4)C3)cc21 (stereo not drawn) [Example 49, 5-((3-(Hydroxymethyl)-3-(3-(trifluoromethyl)-5,6,7,8-tetrahydro-1,6-naphthyridine-6-carbonyl)pyrrolidin-1-yl)methyl)-3-methylbenzo[d]oxazol-2(3H)-one] |
| > 1 µM | CC(C)CC1(C(=O)N2CCc3ncc(C(F)(F)F)cc3C2)CCN(Cc2ccc3c(c2)sc(=O)n3C)CC1 [Example 58, 6-((4-Isobutyl-4-(3-(trifluoromethyl)-5,6,7,8-tetrahydro-1,6-naphthyridine-6-carbonyl)piperidin-1-yl)methyl)-3-methylbenzo[d]thiazol-2(3H)-one] |
